Key:
[1] = clinical study in children with mild asthma: lower leg growth rate by knemometry; assay type: in vivo, human; settings: for lower leg growth rate: 2-week treatment, children 6 to 12 years, placebo 0.412 mm/week
Protocol: (§1) The present study was conducted to determine the effects of ciclesonide at doses intended for the use in children on lower leg growth rate and HPA function in children with mild asthma.
(§2) METHODS: In a double blind, randomized, placebo-controlled, 4-period cross-over study, 24 children, 6 to 12 years of age, received ciclesonide 40, 80 and 160 μg or placebo via HFA-MDI once daily in the evening. Each 2-week treatment period was followed by a 2-week washout. Knemometry was performed at the beginning and the end of each treatment period. Cortisol levels in 12 h overnight urine were measured at the end of each treatment period.

[2] = clinical study in children with mild asthma: HPA function, cortisol in 12 h overnight urine; assay type: in vivo, human; settings: 40, 80 and 160 μg once daily or placebo, 12 h overnight urine at end of each 2-week period
Protocol: as §1, §2

[3] = clinical study in children with mild asthma: tolerability; assay type: in vivo, human; settings: 40, 80 and 160 μg once daily, 2 weeks
Protocol: as §1, §2

[4] = cited from earlier work
[5] = cited from earlier work; remark: listed apart in the source
[6] = 40, 80 and 160 μg once daily, 2 weeks

CC(C)C(=O)OCC(=O)[C@@]12O[C@H](C3CCCCC3)O[C@@H]1C[C@H]1[C@@H]3CCC4=CC(=O)C=C[C@]4(C)[C@H]3[C@@H](O)C[C@@]12C [ciclesonide, [11β,16α(R)]-16,17-[(Cyclohexylmethylen)bis(oxy)]-11-hydroxy-21-(2-methyl-1-oxopropoxy)pregna-1,4-dien-3,20-dion]
lower leg growth rate ([1]; 40 μg once daily in the evening via HFA-MDI): 0.425 mm/week
lower leg growth rate ([1]; 80 μg once daily in the evening via HFA-MDI): 0.397 mm/week
lower leg growth rate ([1]; 160 μg once daily in the evening via HFA-MDI): 0.370 mm/week
difference in lower-leg growth rates between ciclesonide treatments and placebo [1, 6]: No statistically significant differences
dose-response effect on lower leg growth rate [1, 6]: no statistically significant dose-response effect
urinary free cortisol adjusted for creatinine, difference between treatments [2]: no difference
tolerability [3]: well tolerated
systemic activity ([4]; in vivo): low systemic activity
anti-inflammatory activity compared with budesonide ([4]; relative to budesonide): higher
systemic activity compared with budesonide ([4]; relative to budesonide): three times lower
concentration of the drug in the lungs ([5]; in vivo): high
metabolism by liver oxidases ([5]; in vivo): very high
plasma half-life ([5]; in vivo): low plasma half-life
absorption after oral administration ([5]; oral): only moderately absorbed

— patent US8371292B2, “Use of ciclesonide for the treatment of respiratory diseases” (Nycomed GmbH, priority 2003, dated 2013)
